From patent publication US8178506B2, “Oligomeric compounds and compositions for use in modulation of small non-coding RNAs” (Regulus Therapeutics Inc., priority 2003, dated 2012)
In the oligonucleotide strings, read from the 5' end, every base follows the letter of its sugar. An asterisk marks phosphorothioate; unmarked linkages are phosphodiester. Other units and linkages are bracketed, terminal groups are in braces. A string of capitals states the bases alone. e = 2'-O-(2-methoxyethyl) (MOE); [5mC] = 5-methylcytosine; d = 2'-deoxy (DNA)

Experiments:
[1] = test system: PPARγ; experiment: PPARγ mRNA expression in adipocytes (real-time PCR); type: cell-based, human
[2] = test system: aP2; experiment: aP2 mRNA expression in adipocytes (real-time PCR); type: cell-based, human; conditions: for aP2 mRNA: Table 75
[3] = test system: HSL; experiment: HSL mRNA expression in adipocytes (real-time PCR); type: cell-based, human
[4] = test system: adipocytes; experiment: Triglyceride accumulation assay in adipocytes; type: cell-based, human
[5] = test system: Glut4; experiment: Glut4 mRNA expression in adipocytes (real-time PCR); type: cell-based, human
[6] = test system: HuVECs; experiment: Endothelial tube formation assay in HuVECs; conditions: 75 nM oligomeric compound
[7] = test system: BJ, B16-F10, T47D, T47Dp53 and HeLa cells; experiment: Cell cycle assay (propidium iodide flow cytometry), cell line panel; type: cell-based; conditions: for G1 (percentage of cells in phase of the cell cycle) / G2/M (percentage of cells in phase of the cell cycle) / S (percentage of cells in phase of the cell cycle) / SubG1 (percentage of cells in phase of the cell cycle) / aneuploid (percentage of cells): 150 nM oligomeric compound, 4.5 μg/ml LIPOFECTIN, after 72 hours, propidium iodide flow cytometry
[8] = differentiating adipocytes transfected with oligomeric compound
[9] = adipocytes, 250 nM oligomeric compound, day nine post-transfection, relative to control (1.0), Table 15
[10] = differentiating adipocytes transfected with oligomeric compound, Table 75
[11] = Table 20, adipocyte differentiation assay as in Example 13
[12] = Table 18, differentiating adipocytes, control = treatment with ISIS 342673

Substance	PPAR gamma mRNA [1, 8]	AP2 mRNA [2, 8]	HSL mRNA [3, 8]	TG (triglyceride accumulation) [4, 8]	GLUT4 mRNA [5, 8]	PPAR gamma mRNA [1, 10]	aP2 mRNA [2, 8]	HSL mRNA [3, 10]	GLUT4 mRNA [5, 10]	G1 (percentage of cells in phase of the cell cycle) [7] [%]	G2/M (percentage of cells in phase of the cell cycle) [7] [%]	S (percentage of cells in phase of the cell cycle) [7] [%]	SubG1 (percentage of cells in phase of the cell cycle) [7] [%]	aneuploid (percentage of cells) [7] [%]	further results
327877 (antisense e[5mC]*eG*e[5mC]*e[5mC]*eA*eA*eT*eA*eT*eT*eT*eA*e[5mC]*eG*eT*eG*e[5mC]*eT*eG*e[5mC]*eT*eA) [compound 327877]	85 percentage of untreated control (UTC)	77 percentage of untreated control (UTC)	82 percentage of untreated control (UTC)	109 percentage of untreated control (UTC)	119 percentage of untreated control (UTC)	–	–	–	–	–	–	–	–	–	% Activity Relative to UTC (tube formation) ([6]; Table 56): 78.6%
327913 (antisense eA*eA*e[5mC]*e[5mC]*eG*eA*eT*eT*eT*e[5mC]*eA*eA*eA*eT*eG*eG*eT*eG*e[5mC]*eT*eA*eG) [compound 327913]	–	–	–	–	–	–	–	–	–	–	–	–	–	–	PPAR gamma (mRNA expression) [1, 9]: 0.72; AP2 (mRNA expression) [2, 9]: 0.99; HSL (mRNA expression) [3, 9]: 0.92; TG (triglyceride accumulation) ([4]; adipocytes, 250 nM oligomeric compound, relative to control (1.0), Table 15): 0.59; Glut4 (mRNA expression) [5, 9]: 0.84; % Activity Relative to UTC (tube formation) ([6]; Table 57): 69.0%
327916 (antisense eT*eG*eG*e[5mC]*eA*eT*eT*e[5mC]*eA*e[5mC]*e[5mC]*eG*e[5mC]*eG*eT*eG*e[5mC]*e[5mC]*eT*eT*eA*eA) [compound 327916]	–	–	–	–	–	71 percentage of untreated control (UTC)	67 percentage of untreated control (UTC)	64 percentage of untreated control (UTC)	51 percentage of untreated control (UTC)	–	–	–	–	–	TG (triglyceride accumulation) [4, 10]: 56 percentage of untreated control (UTC); % Activity Relative to UTC (tube formation) ([6]; Table 57): 96.6%
TGAGCTACAGTGCTTCATCTCA [ISIS 327901] (chemistry not given here) [uniform 2′-MOE PS; targets mir-143]	–	–	–	–	–	–	–	–	–	–	–	–	–	–	percentage of cells in the G2/M phase ([7]; 150 nM, 72 hours (Table 29)): increased percentage of cells in the G2/M phase
327896 (antisense eA*e[5mC]*eA*eG*eT*eT*e[5mC]*eT*eT*e[5mC]*eA*eA*e[5mC]*eT*eG*eG*e[5mC]*eA*eG*e[5mC]*eT*eT) [compound 327896]	–	–	–	–	–	52 percentage of untreated control (UTC)	43 percentage of untreated control (UTC)	37 percentage of untreated control (UTC)	35 percentage of untreated control (UTC)	–	–	–	–	–	TG (triglyceride accumulation) [4, 10]: 22 percentage of untreated control (UTC); % Activity Relative to UTC (tube formation) ([6]; Table 56): 64.3%
328382 (e[5mC]*eA*eG*eA*e[5mC]*dT*d[5mC]*d[5mC]*d[5mC]*dA*dA*d[5mC]*dT*dG*dA*e[5mC]*e[5mC]*eA*eG*eA) [compound 328382]	–	–	–	–	–	–	–	–	–	59.8	14.4	25.7	2.9	14.8	PPAR gamma [1, 11]: 0.96; AP2 [2, 11]: 0.89; HSL [3, 11]: 0.75; TG [4, 11]: 0.72; Glut4 [5, 11]: 0.85
328362 (eT*eG*eT*eG*eT*dT*dT*dT*d[5mC]*dT*dG*dA*d[5mC]*dT*d[5mC]*eA*eG*eT*e[5mC]*eA) [compound 328362]	78 percentage of untreated control (UTC)	59 percentage of untreated control (UTC)	83 percentage of untreated control (UTC)	73 percentage of untreated control (UTC)	80 percentage of untreated control (UTC)	–	–	–	–	51.2	15.1	33.6	9.1	12.9	–
341805 (antisense ACCCTTATCAGTTCTCCGTCCA; all 2'-MOE, all phosphorothioate, methylation of C not given here) [compound 341805]	–	–	–	–	–	77 percentage of untreated control (UTC)	90 percentage of untreated control (UTC)	86 percentage of untreated control (UTC)	74 percentage of untreated control (UTC)	–	–	–	–	–	PPAR gamma mRNA [1, 12]: 80.4 percentage of control; AP2 mRNA [2, 12]: 81.9 percentage of control; HSL mRNA [3, 12]: 81.8 percentage of control; TG (triglyceride accumulation) [4, 12]: 78.1 percentage of control; GLUT4 mRNA [5, 12]: 88.2 percentage of control
328691 (e[5mC]*e[5mC]*e[5mC]*e[5mC]*eA*dT*d[5mC]*dT*dT*dA*dG*d[5mC]*dA*dT*d[5mC]*eT*eA*eA*eG*eG) [compound 328691]	105 percentage of untreated control (UTC)	166 percentage of untreated control (UTC)	156 percentage of untreated control (UTC)	130 percentage of untreated control (UTC)	144 percentage of untreated control (UTC)	–	–	–	–	60.5	15.1	24.4	7.7	16.6	–
